Results on 23 compounds are retold here after ChEMBL document CHEMBL5291721, “A preclinical secondary pharmacology resource illuminates target-adverse drug reaction associations of marketed drugs” (Nat Commun, 2023).

A value given as a limit tells only on which side of the number the result lay.

Among the targets are Substance-P receptor (Homo sapiens, UniProt P25103); Histamine H2 receptor (Homo sapiens, UniProt P25021); D(1A) dopamine receptor (Homo sapiens, UniProt P21728).
The target of the next test is T1, Estrogen receptor (Homo sapiens, UniProt P03372).
T1 sequence (P03372 whole entry): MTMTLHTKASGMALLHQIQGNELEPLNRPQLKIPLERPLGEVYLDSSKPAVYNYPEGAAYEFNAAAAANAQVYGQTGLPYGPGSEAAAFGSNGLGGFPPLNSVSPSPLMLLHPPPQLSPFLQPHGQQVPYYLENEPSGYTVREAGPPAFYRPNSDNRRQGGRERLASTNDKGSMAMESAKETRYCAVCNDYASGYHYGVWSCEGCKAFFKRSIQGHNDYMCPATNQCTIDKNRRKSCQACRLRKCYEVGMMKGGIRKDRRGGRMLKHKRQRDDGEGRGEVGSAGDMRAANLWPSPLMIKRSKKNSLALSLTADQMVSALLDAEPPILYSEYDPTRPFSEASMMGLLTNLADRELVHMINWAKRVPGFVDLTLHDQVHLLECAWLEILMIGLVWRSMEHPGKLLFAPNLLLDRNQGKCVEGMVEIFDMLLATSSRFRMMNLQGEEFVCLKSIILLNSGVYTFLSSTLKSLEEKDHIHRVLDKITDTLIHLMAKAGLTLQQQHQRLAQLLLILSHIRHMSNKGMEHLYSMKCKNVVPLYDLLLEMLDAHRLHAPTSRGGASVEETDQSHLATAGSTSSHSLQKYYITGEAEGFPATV

In test [1] the target is Neurotensin receptor type 1 (Homo sapiens, UniProt P30989).
Test [2] deals with T2, Endothelin receptor type B (Homo sapiens, UniProt P24530).
T2 sequence (P24530 whole entry): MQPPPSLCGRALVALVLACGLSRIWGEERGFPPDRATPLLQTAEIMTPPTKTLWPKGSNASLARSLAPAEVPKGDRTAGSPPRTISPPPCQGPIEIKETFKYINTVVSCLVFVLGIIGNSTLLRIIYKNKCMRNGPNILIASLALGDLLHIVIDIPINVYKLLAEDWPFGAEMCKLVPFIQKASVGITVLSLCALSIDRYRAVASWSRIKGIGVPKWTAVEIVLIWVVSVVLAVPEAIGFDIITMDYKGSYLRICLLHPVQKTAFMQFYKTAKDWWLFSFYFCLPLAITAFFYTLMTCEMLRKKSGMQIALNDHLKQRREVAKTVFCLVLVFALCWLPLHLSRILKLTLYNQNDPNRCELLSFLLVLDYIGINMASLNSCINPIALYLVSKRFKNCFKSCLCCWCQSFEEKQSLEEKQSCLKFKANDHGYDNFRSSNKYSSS

Test [3] concerns the target Beta-3 adrenergic receptor (Homo sapiens, UniProt P13945).
A further test has as its target T3, B1 bradykinin receptor (Homo sapiens, UniProt P46663).
T3 sequence (P46663 whole entry): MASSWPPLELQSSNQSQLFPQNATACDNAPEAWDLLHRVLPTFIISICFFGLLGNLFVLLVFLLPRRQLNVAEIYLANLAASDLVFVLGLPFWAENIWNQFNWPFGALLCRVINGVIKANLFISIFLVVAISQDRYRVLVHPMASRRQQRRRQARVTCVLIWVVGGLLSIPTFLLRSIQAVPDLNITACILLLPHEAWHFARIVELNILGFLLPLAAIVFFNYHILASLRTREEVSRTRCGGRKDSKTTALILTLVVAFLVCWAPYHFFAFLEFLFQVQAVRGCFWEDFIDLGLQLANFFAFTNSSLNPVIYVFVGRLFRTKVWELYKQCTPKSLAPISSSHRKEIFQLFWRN

Test [4] concerns the target T4, Neuropeptide Y receptor type 2 (Homo sapiens, UniProt P49146).
T4 sequence (P49146 whole entry): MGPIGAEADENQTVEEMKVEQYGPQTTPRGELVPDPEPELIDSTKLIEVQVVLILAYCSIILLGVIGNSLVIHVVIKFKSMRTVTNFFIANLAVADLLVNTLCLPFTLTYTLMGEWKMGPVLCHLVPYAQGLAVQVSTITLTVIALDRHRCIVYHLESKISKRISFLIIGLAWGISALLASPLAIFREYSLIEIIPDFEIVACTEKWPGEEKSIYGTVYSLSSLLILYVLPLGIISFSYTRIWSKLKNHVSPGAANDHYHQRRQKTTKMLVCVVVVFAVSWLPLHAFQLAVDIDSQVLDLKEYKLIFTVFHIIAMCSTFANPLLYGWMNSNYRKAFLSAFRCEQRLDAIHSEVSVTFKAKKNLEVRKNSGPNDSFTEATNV

Test [5] addresses Gamma-aminobutyric acid receptor subunit alpha-1/alpha-2/beta-2/gamma-2 (Homo sapiens, UniProt P14867+P18507+P47869+P47870). In kind it is functional, cell-based.
Note: assay procedure not described here.

Beta-3 adrenergic receptor, sequence (P13945 whole entry): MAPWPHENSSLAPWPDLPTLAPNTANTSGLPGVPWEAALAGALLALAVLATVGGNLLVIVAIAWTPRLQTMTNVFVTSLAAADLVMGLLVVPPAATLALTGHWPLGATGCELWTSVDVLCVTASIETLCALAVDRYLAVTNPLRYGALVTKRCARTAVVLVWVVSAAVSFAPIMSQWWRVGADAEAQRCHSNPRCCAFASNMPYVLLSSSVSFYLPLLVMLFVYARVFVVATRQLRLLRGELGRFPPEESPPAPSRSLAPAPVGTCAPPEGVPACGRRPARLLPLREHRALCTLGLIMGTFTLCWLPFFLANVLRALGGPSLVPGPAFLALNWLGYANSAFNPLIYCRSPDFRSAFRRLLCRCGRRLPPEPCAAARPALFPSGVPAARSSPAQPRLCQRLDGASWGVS
Gamma-aminobutyric acid receptor subunit alpha-1/alpha-2/beta-2/gamma-2, sequence (P14867 whole entry): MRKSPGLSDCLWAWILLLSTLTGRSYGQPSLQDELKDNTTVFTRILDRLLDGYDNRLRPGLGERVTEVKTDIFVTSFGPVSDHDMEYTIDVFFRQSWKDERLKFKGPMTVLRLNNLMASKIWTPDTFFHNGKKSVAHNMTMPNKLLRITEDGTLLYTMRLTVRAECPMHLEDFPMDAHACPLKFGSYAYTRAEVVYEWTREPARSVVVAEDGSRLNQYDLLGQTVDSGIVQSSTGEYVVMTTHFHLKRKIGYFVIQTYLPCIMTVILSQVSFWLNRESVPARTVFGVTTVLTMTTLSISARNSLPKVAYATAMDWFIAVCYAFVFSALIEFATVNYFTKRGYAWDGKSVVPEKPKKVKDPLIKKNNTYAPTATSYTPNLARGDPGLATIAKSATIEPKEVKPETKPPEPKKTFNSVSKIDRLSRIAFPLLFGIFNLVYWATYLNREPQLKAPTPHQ
Gamma-aminobutyric acid receptor subunit alpha-1/alpha-2/beta-2/gamma-2, sequence (P47870 whole entry): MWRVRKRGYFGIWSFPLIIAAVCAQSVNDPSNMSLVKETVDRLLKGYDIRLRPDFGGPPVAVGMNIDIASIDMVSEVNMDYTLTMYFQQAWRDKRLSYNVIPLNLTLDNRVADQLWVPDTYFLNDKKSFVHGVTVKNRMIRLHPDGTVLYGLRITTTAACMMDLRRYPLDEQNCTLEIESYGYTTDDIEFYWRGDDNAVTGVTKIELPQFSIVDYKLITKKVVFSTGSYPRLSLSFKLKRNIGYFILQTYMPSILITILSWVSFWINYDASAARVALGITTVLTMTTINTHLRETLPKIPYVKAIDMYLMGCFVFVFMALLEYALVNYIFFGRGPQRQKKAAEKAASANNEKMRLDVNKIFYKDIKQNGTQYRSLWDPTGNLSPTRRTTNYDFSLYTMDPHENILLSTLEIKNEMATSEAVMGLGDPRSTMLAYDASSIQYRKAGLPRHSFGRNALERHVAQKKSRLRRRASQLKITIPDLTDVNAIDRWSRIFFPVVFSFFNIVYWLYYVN
Gamma-aminobutyric acid receptor subunit alpha-1/alpha-2/beta-2/gamma-2, sequence (P18507 whole entry): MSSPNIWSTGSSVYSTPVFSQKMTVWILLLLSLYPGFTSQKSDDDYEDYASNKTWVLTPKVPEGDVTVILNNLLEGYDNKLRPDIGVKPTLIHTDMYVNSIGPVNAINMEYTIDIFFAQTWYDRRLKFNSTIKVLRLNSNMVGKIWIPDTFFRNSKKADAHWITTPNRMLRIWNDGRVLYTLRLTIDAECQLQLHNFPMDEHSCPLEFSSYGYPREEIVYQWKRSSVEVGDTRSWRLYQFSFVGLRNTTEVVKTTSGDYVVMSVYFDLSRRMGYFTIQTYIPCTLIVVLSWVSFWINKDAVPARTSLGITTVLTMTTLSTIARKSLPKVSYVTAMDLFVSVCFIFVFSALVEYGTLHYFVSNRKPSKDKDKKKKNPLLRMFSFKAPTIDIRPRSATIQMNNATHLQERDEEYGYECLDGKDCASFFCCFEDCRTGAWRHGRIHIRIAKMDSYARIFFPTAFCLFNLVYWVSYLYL
Gamma-aminobutyric acid receptor subunit alpha-1/alpha-2/beta-2/gamma-2, sequence (P47869 whole entry): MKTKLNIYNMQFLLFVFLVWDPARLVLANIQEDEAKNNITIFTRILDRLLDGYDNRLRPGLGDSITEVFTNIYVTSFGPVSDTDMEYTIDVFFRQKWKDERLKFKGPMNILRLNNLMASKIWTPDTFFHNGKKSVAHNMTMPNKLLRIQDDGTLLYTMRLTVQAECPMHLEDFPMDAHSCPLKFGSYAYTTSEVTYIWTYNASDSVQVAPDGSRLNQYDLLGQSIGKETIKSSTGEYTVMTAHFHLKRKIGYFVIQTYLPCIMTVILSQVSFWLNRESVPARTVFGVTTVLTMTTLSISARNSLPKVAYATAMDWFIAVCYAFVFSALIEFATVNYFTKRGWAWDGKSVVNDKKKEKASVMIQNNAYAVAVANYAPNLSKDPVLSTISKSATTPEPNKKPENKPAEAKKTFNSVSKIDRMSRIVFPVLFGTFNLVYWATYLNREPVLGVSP
Neurotensin receptor type 1, sequence (P30989 whole entry): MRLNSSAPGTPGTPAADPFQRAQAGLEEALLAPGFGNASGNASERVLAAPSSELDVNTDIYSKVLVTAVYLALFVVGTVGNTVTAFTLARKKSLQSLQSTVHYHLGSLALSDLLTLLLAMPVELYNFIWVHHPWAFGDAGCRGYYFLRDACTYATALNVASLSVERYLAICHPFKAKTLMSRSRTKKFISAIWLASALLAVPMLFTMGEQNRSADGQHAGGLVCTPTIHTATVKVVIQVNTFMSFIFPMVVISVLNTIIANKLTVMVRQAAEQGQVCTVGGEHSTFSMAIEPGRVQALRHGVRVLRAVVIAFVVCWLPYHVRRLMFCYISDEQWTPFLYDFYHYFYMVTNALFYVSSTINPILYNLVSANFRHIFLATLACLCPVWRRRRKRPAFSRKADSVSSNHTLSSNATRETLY
Substance-P receptor, sequence (P25103 whole entry): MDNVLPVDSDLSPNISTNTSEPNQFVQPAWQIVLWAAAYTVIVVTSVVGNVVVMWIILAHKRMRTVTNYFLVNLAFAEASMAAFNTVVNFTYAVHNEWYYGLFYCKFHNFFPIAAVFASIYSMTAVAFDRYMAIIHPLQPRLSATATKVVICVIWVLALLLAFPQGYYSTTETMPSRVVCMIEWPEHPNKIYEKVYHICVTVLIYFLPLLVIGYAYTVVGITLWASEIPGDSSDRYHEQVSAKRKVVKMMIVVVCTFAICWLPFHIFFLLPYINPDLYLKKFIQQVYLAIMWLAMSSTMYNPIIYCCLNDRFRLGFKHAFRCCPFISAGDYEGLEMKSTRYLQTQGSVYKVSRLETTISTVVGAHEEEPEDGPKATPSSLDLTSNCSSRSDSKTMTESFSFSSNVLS
Histamine H2 receptor, sequence (P25021 whole entry): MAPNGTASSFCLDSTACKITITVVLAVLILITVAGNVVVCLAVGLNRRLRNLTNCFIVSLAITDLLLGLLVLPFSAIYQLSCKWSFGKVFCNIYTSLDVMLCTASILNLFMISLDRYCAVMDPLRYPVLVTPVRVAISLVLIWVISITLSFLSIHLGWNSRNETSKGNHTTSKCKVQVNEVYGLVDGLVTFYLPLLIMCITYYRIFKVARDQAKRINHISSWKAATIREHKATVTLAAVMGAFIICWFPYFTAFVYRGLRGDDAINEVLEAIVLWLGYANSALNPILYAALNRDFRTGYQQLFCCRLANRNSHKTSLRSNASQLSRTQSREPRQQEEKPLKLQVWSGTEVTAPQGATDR
D(1A) dopamine receptor, sequence (P21728 whole entry): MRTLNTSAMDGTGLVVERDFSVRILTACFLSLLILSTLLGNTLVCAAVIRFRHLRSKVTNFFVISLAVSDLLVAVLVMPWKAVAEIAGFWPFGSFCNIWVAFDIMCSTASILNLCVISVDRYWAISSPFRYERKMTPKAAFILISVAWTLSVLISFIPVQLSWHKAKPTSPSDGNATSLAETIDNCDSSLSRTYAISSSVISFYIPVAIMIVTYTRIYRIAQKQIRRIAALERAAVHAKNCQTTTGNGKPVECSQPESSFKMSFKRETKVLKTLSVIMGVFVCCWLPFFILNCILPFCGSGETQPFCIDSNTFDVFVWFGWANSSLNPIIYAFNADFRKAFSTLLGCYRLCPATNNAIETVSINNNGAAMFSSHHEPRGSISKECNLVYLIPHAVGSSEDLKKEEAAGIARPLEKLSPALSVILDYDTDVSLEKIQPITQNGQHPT

Take `CCCCN1C[C@H](O)[C@@H](O)[C@H](O)[C@H]1CO`: the AC50 (commonly the concentration at which the activity in the assay is half-maximal) on Estrogen receptor is greater than 30 µM.
As for `CCOC(=O)[C@H](CCc1ccccc1)N[C@@H](C)C(=O)N1[C@H](C(=O)O)C[C@@H]2CCC[C@@H]21`, the concentration at half-maximal activity (AC50) in [1] is greater than 30 µM; at Estrogen receptor, greater than 30 µM; at Substance-P receptor it was greater than 10 µM; in test [2] it was greater than 30 µM; in [3] it was greater than 30 µM; at B1 bradykinin receptor, greater than 30 µM. Besides, the AC50 at Histamine H2 receptor was greater than 10 µM; in test [4], greater than 30 µM; on D(1A) dopamine receptor it was greater than 10 µM.
`Nc1nc(NC2CC2)c2ncn([C@H]3C=C[C@@H](CO)C3)c2n1` [ABACAVIR] displayed an AC50 in test [5] greater than 30 µM.
The same measure, in the same setting: under `CC(=O)Nc1ccc(O)cc1` [ACETAMINOPHEN] stands greater than 30 µM.
As for `COc1cc2nc(N(C)CCCNC(=O)C3CCCO3)nc(N)c2cc1OC` (centres undefined) [ALFUZOSIN], at Estrogen receptor, the AC50 is greater than 30 µM.
As to `CC[C@H]1OC(=O)[C@H](C)[C@@H](O[C@H]2C[C@@](C)(OC)[C@@H](O)[C@H](C)O2)[C@H](C)[C@@H](O[C@@H]2O[C@H](C)C[C@H](N(C)C)[C@H]2O)[C@](C)(O)C[C@@H](C)CN(C)[C@H](C)[C@@H](O)[C@]1(C)O` [AZITHROMYCIN], the AC50 in [1] was greater than 30 µM; on Estrogen receptor, greater than 30 µM; on Substance-P receptor, greater than 10 µM; in [2] it was greater than 30 µM; in test [3], greater than 30 µM; at B1 bradykinin receptor, greater than 30 µM. Besides, the AC50 at Histamine H2 receptor was greater than 10 µM; in test [4] it was greater than 30 µM; at D(1A) dopamine receptor it was greater than 10 µM.
As for `Cc1ccc(-c2cc(C(F)(F)F)nn2-c2ccc(S(N)(=O)=O)cc2)cc1` [CELECOXIB], the AC50 in test [1] is greater than 30 µM; at Estrogen receptor, greater than 30 µM; on Substance-P receptor it was greater than 10 µM; in test [2], greater than 30 µM; in test [3], 5.2 µM; at B1 bradykinin receptor, greater than 30 µM. Moreover, the AC50 on Histamine H2 receptor was greater than 10 µM; in test [4], greater than 30 µM; at D(1A) dopamine receptor, greater than 10 µM.
For the compound `CC1=C(C(=O)O)N2C(=O)[C@@H](NC(=O)[C@H](N)c3ccccc3)[C@H]2SC1` [CEPHALEXIN ANHYDROUS], the AC50 in test [1] was greater than 30 µM; at Estrogen receptor it was greater than 30 µM; at Substance-P receptor it was greater than 10 µM; in test [2], greater than 30 µM; in test [3], greater than 30 µM; at B1 bradykinin receptor it was greater than 30 µM. Moreover, the figures for the AC50 (at Histamine H2 receptor; in test [4]) were greater than 10 µM and greater than 30 µM, respectively.
Regarding `CN(C)CCC(c1ccc(Cl)cc1)c1ccccn1` (centres undefined) [CHLORPHENIRAMINE], the AC50 in test [1] was greater than 30 µM; on Substance-P receptor, greater than 10 µM; in [2], greater than 30 µM; in test [3] it was greater than 30 µM; on B1 bradykinin receptor it was greater than 30 µM; on Histamine H2 receptor, 0.412 µM. Moreover, the AC50 in [4] is greater than 30 µM; on D(1A) dopamine receptor it was greater than 10 µM.
As for `CN(C)/N=N/c1[nH]cnc1C(N)=O` [DACARBAZINE], the AC50 on Estrogen receptor was greater than 10 µM.
Take `O=C(Cc1ccc(-c2ccccc2)cc1)Nc1ccccn1` [DIFENPIRAMIDE]: the AC50 in test [5] was greater than 30 µM.
With `C[N+]1(C)CCC(OC(=O)C(O)(c2ccccc2)C2CCCC2)C1` (centres undefined) [GLYCOPYRRONIUM BROMIDE], the AC50 on Estrogen receptor is greater than 30 µM.
With `C[C@]12CCC(=O)C=C1CC[C@@H]1[C@@H]2[C@@H](O)C[C@@]2(C)[C@H]1CC[C@]2(O)C(=O)CO` [HYDROCORTISONE], the AC50 in test [1] was greater than 30 µM; on Substance-P receptor it was greater than 10 µM; in test [2], greater than 30 µM; in test [3] it was greater than 30 µM; on B1 bradykinin receptor, greater than 30 µM; on Histamine H2 receptor, greater than 10 µM. For the same compound, the AC50 is greater than 30 µM in [4] and greater than 10 µM at D(1A) dopamine receptor.
In the case of `CCC(C)n1ncn(-c2ccc(N3CCN(c4ccc(OCC5COC(Cn6cncn6)(c6ccc(Cl)cc6Cl)O5)cc4)CC3)cc2)c1=O` (centres undefined) [ITRACONAZOLE], the AC50 in test [1] was greater than 30 µM; at Estrogen receptor it was greater than 30 µM; at Substance-P receptor, 1.54 µM; in test [2] it was greater than 30 µM; in test [3], greater than 30 µM; at B1 bradykinin receptor, greater than 30 µM. Moreover, the AC50 at Histamine H2 receptor is greater than 10 µM; in test [4], greater than 30 µM; at D(1A) dopamine receptor, greater than 10 µM.
Regarding `CN1C(C(=O)Nc2ccccn2)=C(O)c2sc(Cl)cc2S1(=O)=O` [LORNOXICAM], on Estrogen receptor, the AC50 was greater than 30 µM.
On Estrogen receptor, `CC[C@H]1[C@@H](O)[C@@H]2[C@H](CC[C@]3(C)[C@@H]([C@H](C)CCC(=O)O)CC[C@@H]23)[C@@]2(C)CC[C@@H](O)C[C@@H]12` [OBETICHOLIC ACID] yielded an AC50 greater than 30 µM.
On the same count and under the same terms, the result for `COc1cc(NC(C)CCCN)c2ncccc2c1` (centres undefined) [PRIMAQUINE] reads 6.7 µM; that for `COc1ccccc1OCC(O)CN1CCN(CC(=O)Nc2c(C)cccc2C)CC1` (centres undefined) [RANOLAZINE], greater than 30 µM.
Take `CS(=O)(=O)c1ccc(C2=C(c3ccccc3)C(=O)OC2)cc1` [ROFECOXIB]: the AC50 was greater than 30 µM in test [1]; greater than 10 µM on Substance-P receptor; greater than 30 µM in [2]; greater than 30 µM in test [3]; greater than 30 µM at B1 bradykinin receptor; greater than 10 µM at Histamine H2 receptor. Moreover, the AC50 in test [4] was greater than 30 µM; on D(1A) dopamine receptor, greater than 10 µM.
On to `CO[C@H]1C[C@@H]2CC[C@@H](C)[C@@](O)(O2)C(=O)C(=O)N2CCCC[C@H]2C(=O)O[C@H]([C@H](C)C[C@@H]2CC[C@@H](O)[C@H](OC)C2)CC(=O)[C@H](C)/C=C(\C)[C@@H](O)[C@@H](OC)C(=O)[C@H](C)C[C@H](C)/C=C/C=C/C=C/1C` [SIROLIMUS], for which the concentration at half-maximal activity (AC50) is greater than 30 µM in test [1]; greater than 30 µM at Estrogen receptor; greater than 30 µM in [2]; 23.8 µM in test [3]; greater than 30 µM on B1 bradykinin receptor; greater than 30 µM in test [4].
Consider `Clc1ccc2nsnc2c1NC1=NCCN1` [TIZANIDINE], for which the half-maximal activity concentration (AC50) in test [1] is greater than 30 µM; at Estrogen receptor, greater than 30 µM; on Substance-P receptor, greater than 10 µM; in [2] it was greater than 30 µM; in [3], greater than 30 µM; at B1 bradykinin receptor, greater than 30 µM. Further, the AC50 at Histamine H2 receptor is greater than 10 µM; in test [4], greater than 30 µM; at D(1A) dopamine receptor, greater than 10 µM.
For `Nc1ccn([C@H]2CC[C@@H](CO)O2)c(=O)n1` [ZALCITABINE], the AC50 on Estrogen receptor was greater than 10 µM.
As to `Cc1cn([C@H]2C[C@H](N=[N+]=[N-])[C@@H](CO)O2)c(=O)[nH]c1=O` [ZIDOVUDINE], the AC50 is greater than 30 µM in [1]; greater than 30 µM at Estrogen receptor; greater than 10 µM at Substance-P receptor; greater than 30 µM in [2]; greater than 30 µM in test [3]; greater than 30 µM on B1 bradykinin receptor. The values for the AC50 (at Histamine H2 receptor; in test [4]; at D(1A) dopamine receptor) were greater than 10 µM, greater than 30 µM and greater than 10 µM, respectively.
